Reference: patent US20240139148A1, “COMPOSITIONS AND METHODS FOR TREATING NON-TUBERCULOUS MYCOBACTERIAL INFECTIONS” (priority 2021, published 2024)
pIC50: −log10 of the molar value. Values after ≈ are worked out from the molar mass of the structure shown. Read-outs that look alike come from different tables or passages of the source.

What was measured:
[1] = tested on: MabsΔdosRS; format: cell-based, M. abscessus subsp. abscessus; settings: for decrease in survival compared to the DMSO-treated mutant control: 7 d under hypoxia, AMK 64 mg L^−1, AZI 32 mg L^−1, CFZ 2 mg L^−1; for susceptibility of the dosRS mutant to AMI or AZI after DosS inhibitor treatment: 40 μM DosS inhibitor, AMI 64 mg L^−1, AZI 32 mg L^−1, 7 d hypoxia; for decrease in viability compared to DMSO control: 40 μM, 7 d of hypoxia
[2] = tested on: MabsΔdosRS complemented with dosRS; format: cell-based, M. abscessus subsp. abscessus; settings: for tolerance to antibiotics under hypoxia: dosRS complemented mutant, 7 d treatment, AMK 64, AZI 32, CFZ 2, IMI 32 mg L^−1; for decrease in viability compared to DMSO-treated controls: dosRS complemented strain, 40 μM, 7 d of hypoxia
[3] = tested on: WT Mabs ATCC 19977; format: cell-based, M. abscessus subsp. abscessus; settings: for tolerance to antibiotics under hypoxia: 7 d treatment, AMK 64, AZI 32, CFZ 2, IMI 32 mg L^−1; for decrease in viability compared to DMSO-treated controls: WT strain, 40 μM, 7 d of hypoxia; for tolerance of DosS inhibitor-treated cells to AZI: AZI for 7 d under hypoxia; for tolerance of DosS inhibitor-treated cells to CFZ: CFZ for 7 d under hypoxia
[4] = tested on: Mabs ATCC 19977; assay: MIC determination (resazurin blue test); format: cell-based, M. abscessus subsp. abscessus; settings: Mycobacteroides abscessus, ATCC19977, 120 h, read-out: Minimum Inhibitory Concentrations (MICs)
[5] = tested on: Mabs ATCC 19977 biofilms; assay: Biofilm dispersal assay on established 4-d old biofilms; format: cell-based, M. abscessus subsp. abscessus; settings: 24 h in PBS
[6] = tested on: MabsΔdosRS; assay: RNA-seq transcriptional profiling under microaerophilic conditions, dosRS KO mutant; settings: 20 μM
[7] = tested on: WT Mabs ATCC 19977; assay: Biofilm formation assay in SCFM (crystal violet staining); format: cell-based, M. abscessus subsp. abscessus; settings: Mycobacteroides abscessus, ATCC19977, 120 h, read-out: IC50 values (required to inhibit 50% of biofilm formation)
[8] = tested on: NO-signaling (dosR induction); assay: NO signaling: RT-qPCR of dosR after Spermine NONOate; format: cell-based, M. abscessus subsp. abscessus; settings: 50 μM inhibitor for 1 h, then Spermine NONOate 50 μM for 40 min
Protocol: FIG. 18: Effect of DosS inhibitors on NO signaling. Mabs ATCC 19977 was grown to OD ˜0.3 in 7H9-ADC-Tween 80, treated for 1 h with either DMSO (control) or 50 μM of DosS inhibitors, followed by addition of Spermine NONOate (50 μM final concentration). […] Ratios of dosR/sigA mRNA are means±SD (n=3 RNA extractions and RT-qPCR reactions).
Since the DosRS pathway of MABSC has been reported to be induced by NO, RT-qPCR was used to determine whether ART, OZ439, and MSU-39446 inhibited the induction of DosR-regulated genes in WT Mabs ATCC 19977 following treatment with spermine/nitric oxide (Spermine/NO) for 40 min.

[9] = target: Mabs ATCC 19977 DosS (MAB_3890c) (Mycobacteroides abscessus, UniProt B1MH83); assay: UV-visible spectroscopy assay of DosS heme redox status; format: biochemical, M. abscessus subsp. abscessus; settings: 100 μM; DTN-reduced DosS (427 nm); at time 0
Source text: FIG. 7: Inhibition of the sensor kinase heme of DosS by ART, OZ439 and MSU-39446. UV-visible spectra of DosS showing treatment with dithionite (DTN) reduces the heme, which is the “on” state for the kinase. ART, OZ439 and MSU-39446, but not the degassed DMSO control, oxidize the heme.
UV-visible spectroscopy assay and mass spectrometry. A recombinant form of Mabs ATCC 19977 DosS (MAB_3890c) was produced in E. coli BL21(DE3) using the pET14b expression system (Novagen, Madison, WI) and pGro7, and purified essentially as described. Briefly, His-DosS expression was induced by isopropyl-thio-β-D-galactopyranoside (IPTG, 0.5 mM) at 16° C. for 20 h. The cell pellet was suspended in lysis buffer (50 mM sodium phosphate (pH 7.6), 10% glycerol, 200 mM sodium chloride, 1% Triton X-100, 0.5 mg mL^−1 lysozyme, 0.1 mg mL^−1 PMSF) and the cell suspension was incubated with shaking at 37° C. for 30 min prior to lysis using a French press (1400-1800 PSI). The soluble extract was applied to a Co^2+ column (Clontech) and washed with washing buffers (with or without 20 mM imidazole in 50 mM sodium phosphate (pH 7.6), 10% glycerol and 500 mM sodium chloride). […] The absorption spectrum of Mabs DosS ([…]) was analyzed as previously described. […] The UV-visible spectra were recorded for kinetic changes over 2 h using a UV-1800 spectrophotometer (Shimadzu). […]

[10] = tested on: WT Mabs ATCC 19977; assay: Acute SCID mouse model of MABSC infection; settings: SCID mice
[11] = tested on: WT Mabs ATCC 19977; assay: Chronic SCID mouse model of MABSC infection; settings: SCID mice; 50 mg/kg gavage every other day for 28 d
[12] = in vivo; settings: SCID, mouse, po, 50 mg/kg
Protocol: (A) Exposure of OZ439 in Mabs ATCC 19977-infected SCID mice. In the acute model, mice received OZ439 orally (200 mg/kg) every other d for 14 d. In the chronic model, mice received OZ439 orally (50 mg/kg) every other d for 28 d. Shown are the averages (±SD) of lung and plasma concentrations 2 and 48 hs after the last dosing. Two mice were used per time point in the acute model. Four mice were used per time point in the chronic model.
(A) Exposure of OZ277 in Mabs ATCC 19977-infected SCID mice. Mice received OZ277 orally (200 mg/kg) daily for 14 days. Shown are the averages (±SD) of lung and plasma concentrations 2 and 24 hours after the last dosing. Two mice were used per time point.
Four to eight Mabs ATCC 19977-infected SCID mice (2 to 4 mice per time point) having received OZ277 and OZ439 as stand-alone drugs by gavage were ethically euthanized on the last day of the experiment for comparison of drug concentrations in the plasma and lung tissues 2 and 24 h (OZ277) or 2 and 48 h (OZ439) after the last dose. For quantitation of OZ277 and OZ439 by HPLC coupled to tandem mass spectrometry (LC-MS/MS), 1 mg mL^−1 DMSO stock solutions of OZ277 and OZ439 were serially diluted in 50/50 acetonitrile/water to create standard curves and quality control spiking solutions. […] Lung tissues were weighed and homogenized in 19 volumes of PBS containing 1% formic acid to 1 part tissue that was pre-chilled. […]

[13] = tested on: THP-1 cells
Protocol: FIG. 21: THP-1 cells were plated at 1×10^6 cells per ml in 24-well plates and treated for 24 hrs. with 10 ng/ml PMA for differentiating to macrophages. PMA medium was removed, and cells were cultured for an additional 24 hrs. Cells were then treated with either nothing, 300 ng/ml LPS or either Mabs ATCC19977 (smooth) or Mabs ATCC19977 (rough)(aka CipR) at an MOI of 5. After 9 h, the medium was removed and replaced with medium containing either nothing or 6 μM of OZ439 in triplicate wells and THP-1 cells were cultured for an additional 30 hr. Supernatants were harvested and assayed for NO production by the Griess Assay. Half the cells were stained with H2DCFDA for ROS analysis and half were stained for macrophage activation markers and analyzed by flow cytometry. Statistical differences between treatment groups were determined by one way ANOVA with Dunnett's multiple comparison test (*=p<0.05; ***=p<0.001; ****=p<0.0001).
THP-1 cells were plated at 1×10^6 cells per ml in 24-well plates and treated for 24 hrs. with 10 ng/ml PMA for differentiating to macrophages. PMA medium was removed, and cells were cultured for an additional 24 hrs. Cells were then treated with either nothing, 300 ng/ml LPS or either Mabs ATCC19977 (smooth) or Mabs ATCC19977 (rough) (aka CipR) at an MOI of 5. After 9 h, the medium was removed and replaced with medium containing either nothing or 6 μM of OZ439 in triplicate wells and THP-1 cells were cultured for an additional 30 hr. Supernatants were harvested and assayed for NO production by the Griess Assay. Half the cells were stained with H2DCFDA for ROS analysis and half were stained for macrophage activation markers and analyzed by flow cytometry. Statistical differences between treatment groups were determined by one way ANOVA with Dunnett's multiple comparison test (*=p<0.05; ***=p<0.001; ****=p<0.0001).

[14] = in SCFM and cation-adjusted Mueller-Hinton II media, 5 d at 37° C., higher concentrations not tested due to solubility
[15] = 5 d of growth in SCFM, poly-D-lysine-coated plates
[16] = 200 mg/kg gavage for 14 days (OZ439 every other day)

Sequence of Mabs ATCC 19977 DosS (MAB_3890c) (B1MH83 entry or part of it): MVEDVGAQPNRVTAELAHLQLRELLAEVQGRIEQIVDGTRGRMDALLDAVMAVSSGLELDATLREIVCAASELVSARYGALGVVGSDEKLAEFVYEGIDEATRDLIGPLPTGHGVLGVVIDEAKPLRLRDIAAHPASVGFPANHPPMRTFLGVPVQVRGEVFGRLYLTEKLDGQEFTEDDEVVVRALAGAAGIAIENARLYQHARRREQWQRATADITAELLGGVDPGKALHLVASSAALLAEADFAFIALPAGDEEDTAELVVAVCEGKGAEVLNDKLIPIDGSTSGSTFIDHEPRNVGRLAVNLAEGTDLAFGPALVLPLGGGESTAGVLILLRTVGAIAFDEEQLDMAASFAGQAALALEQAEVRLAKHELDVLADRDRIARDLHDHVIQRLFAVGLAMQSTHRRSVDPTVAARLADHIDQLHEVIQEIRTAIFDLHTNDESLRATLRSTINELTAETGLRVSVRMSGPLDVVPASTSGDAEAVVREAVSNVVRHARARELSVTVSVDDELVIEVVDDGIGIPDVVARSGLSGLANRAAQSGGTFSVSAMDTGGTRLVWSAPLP

NCC[C@H](O)C(=O)N[C@@H]1C[C@H](N)[C@@H](O[C@H]2O[C@H](CN)[C@@H](O)[C@H](O)[C@H]2O)[C@H](O)[C@H]1O[C@H]1O[C@H](CO)[C@@H](O)[C@H](N)[C@H]1O [AMK, amikacin]
decrease in survival compared to the DMSO-treated mutant control [1]: 15% | tolerance to antibiotics under hypoxia [2]: fully tolerant to all antibiotics | tolerance to antibiotics under hypoxia ([3]; WT): fully tolerant to all antibiotics

C[C@@H]1CC[C@H]2[C@@H](C)C(=O)O[C@@H]3O[C@@]4(C)CC[C@@H]1[C@]32OO4 [ART, artemisinin]
MIC [4, 14]: > 400 µM | dispersal of established biofilms [5]: none of the compounds dispersed the biofilms | number of downregulated genes in the treated mutant [6]: 22 | susceptibility of the dosRS mutant to AMI or AZI after DosS inhibitor treatment [1]: did not significantly enhance the susceptibility | decrease in viability compared to DMSO control [1]: did not exhibit any significant decrease in viability | decrease in viability compared to DMSO-treated controls [2]: 0.64 log10 CFU | decrease in viability compared to DMSO-treated controls [3]: 1.12 log10 CFU | tolerance of DosS inhibitor-treated cells to AMK ([3]; WT, 40 μM DosS inhibitor, AMK for 7 d under hypoxia): decrease in the tolerance | tolerance of DosS inhibitor-treated cells to AZI ([3]; WT, 40 μM DosS inhibitor): decrease in the tolerance | tolerance of DosS inhibitor-treated cells to CFZ ([3]; WT, 40 μM DosS inhibitor): unaffected | pIC50 [7, 15]: 5.80 to 6.10 | inhibition of NO-signaling (dosR induction) [8]: none of the inhibitors tested inhibited NO-signaling | DosS Soret peak position [9]: 421 nm

C[C@H]1[C@H](OC(=O)CCC(=O)O)O[C@@H]2O[C@@]3(C)CC[C@H]4[C@H](C)CC[C@@H]1[C@@]24OO3 [AS, artesunate]
MIC [4]: > 400 µM | dispersal of established biofilms [5]: none of the compounds dispersed the biofilms | pIC50 [7]: 5.80 to 6.10

CC[C@H]1OC(=O)[C@H](C)[C@@H](O[C@H]2C[C@@](C)(OC)[C@@H](O)[C@H](C)O2)[C@H](C)[C@@H](O[C@@H]2O[C@H](C)C[C@H](N(C)C)[C@H]2O)[C@](C)(O)C[C@@H](C)CN(C)[C@H](C)[C@@H](O)[C@]1(C)O [AZI, azithromycin]
decrease in survival compared to the DMSO-treated mutant control [1]: 64% | tolerance to antibiotics under hypoxia [2]: fully tolerant to all antibiotics | tolerance to antibiotics under hypoxia ([3]; WT): fully tolerant to all antibiotics

CC(C)/N=c1\cc2n(-c3ccc(Cl)cc3)c3ccccc3nc-2cc1Nc1ccc(Cl)cc1 [CFZ, clofazimine]
decrease in survival compared to the DMSO-treated mutant control [1]: 52% | tolerance to antibiotics under hypoxia [2]: fully tolerant to all antibiotics | tolerance to antibiotics under hypoxia ([3]; WT): fully tolerant to all antibiotics

CC(C)(N)CNC(=O)C[C@H]1CC[C@]2(CC1)OO[C@]1(O2)C2CC3CC(C2)CC1C3 [OZ277, arterolane]
MIC [4, 14]: > 400 µM | dispersal of established biofilms [5]: none of the compounds dispersed the biofilms | bacterial burdens in lungs and liver, compound by itself [10, 16]: significantly reduced bacterial burdens | bacterial burdens in spleen, compound by itself [10, 16]: significantly reduced bacterial burdens | adjunct efficacy in combination with antibiotics (AMK, AZI, IMI, CFZ) ([10]; 200 mg/kg gavage, vs antibiotics alone): No statistically significant differences | pIC50 [7, 15]: 5.80 to 6.10

c1cc([C@H]2CC[C@]3(CC2)OO[C@]2(O3)C3CC4CC(C3)CC2C4)ccc1OCCN1CCOCC1 [OZ439, artefenomel]
MIC [4, 14]: 400 µM (≈ 188 µg/mL) | dispersal of established biofilms [5]: none of the compounds dispersed the biofilms | number of downregulated genes in the treated mutant [6]: 10 | efficacy by itself (bacterial loads in lungs, liver and spleen) [11]: comparable to that of all four antibiotics | susceptibility of the dosRS mutant to AMI or AZI after DosS inhibitor treatment [1]: did not significantly enhance the susceptibility | decrease in viability compared to DMSO control [1]: did not exhibit any significant decrease in viability | concentration at 2 h [12]: ~6.2 µM | concentration at 48 h [12]: ~3.9 µM | decrease in viability compared to DMSO-treated controls [2]: 0.72 log10 CFU | decrease in viability compared to DMSO-treated controls [3]: 1.18 log10 CFU | tolerance of DosS inhibitor-treated cells to AZI ([3]; WT, 40 μM DosS inhibitor): decrease in the tolerance | tolerance of DosS inhibitor-treated cells to CFZ ([3]; WT, 40 μM DosS inhibitor): unaffected | reduction in bacterial load in the lung ([10]; 200 mg/kg gavage every other day for 14 d): ~1.8 log10 | bacterial burdens in lungs and liver, compound by itself [10, 16]: significantly reduced bacterial burdens | pIC50 [7, 15]: 5.80 to 6.10 | expression of macrophage activation markers ([13]; 6 μM OZ439 alone, non-infected): increased expression of some macrophage activation markers (MHC class II and CD80) | NO production (Griess Assay) ([13]; 6 μM, THP-1 infected with Mabs ATCC19977 smooth strain, 30 hr): reverted this activation | expression of macrophage activation markers (MHC class II, CD80, CD86, CD40) ([13]; 6 μM, THP-1 infected with Mabs, vs not treated): significant increases in all macrophage activation markers | ROS (H2DCFDA) ([13]; 6 μM, absence of Mabs infection): upregulated | ROS production (H2DCFDA) ([13]; 6 μM, cultures infected with Mabs (rough or smooth)): decreased | inhibition of NO-signaling (dosR induction) [8]: none of the inhibitors tested inhibited NO-signaling
